Target: T1, Cathepsin G (Homo sapiens, UniProt P08311);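 note: inhibition of Cathepsin G enzyme activity, tested on an AMC-conjugated peptide substrate; in other assays of this panel Not Active means under 50% inhibition at 10 µM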
T1 sequence (P08311 whole entry): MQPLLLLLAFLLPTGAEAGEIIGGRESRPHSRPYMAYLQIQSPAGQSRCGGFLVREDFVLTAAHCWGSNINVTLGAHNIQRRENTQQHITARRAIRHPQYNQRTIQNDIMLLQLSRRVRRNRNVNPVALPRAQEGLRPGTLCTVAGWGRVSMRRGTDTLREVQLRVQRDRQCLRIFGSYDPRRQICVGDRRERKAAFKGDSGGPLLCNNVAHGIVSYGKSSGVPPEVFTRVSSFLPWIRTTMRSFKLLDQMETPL
Experiment: not given
Assay type: tissue-based
Conditions: neutrophil

| SMILES | IC50 |
| --- | --- |
| CC(=O)O[C@]1(C(C)=O)CC[C@H]2[C@@H]3C=C(Cl)C4=CC(=O)CC[C@]4(C)[C@H]3CC[C@@]21C [CHLORMADINONE ACETATE] | Not Active |
| O=C1OCCN1/N=C/c1ccc([N+](=O)[O-])o1 [FURAZOLIDONE] | Not Active |

Target: T2, D(4) dopamine receptor (Homo sapiens, UniProt P21917)
T2 sequence (P21917 whole entry): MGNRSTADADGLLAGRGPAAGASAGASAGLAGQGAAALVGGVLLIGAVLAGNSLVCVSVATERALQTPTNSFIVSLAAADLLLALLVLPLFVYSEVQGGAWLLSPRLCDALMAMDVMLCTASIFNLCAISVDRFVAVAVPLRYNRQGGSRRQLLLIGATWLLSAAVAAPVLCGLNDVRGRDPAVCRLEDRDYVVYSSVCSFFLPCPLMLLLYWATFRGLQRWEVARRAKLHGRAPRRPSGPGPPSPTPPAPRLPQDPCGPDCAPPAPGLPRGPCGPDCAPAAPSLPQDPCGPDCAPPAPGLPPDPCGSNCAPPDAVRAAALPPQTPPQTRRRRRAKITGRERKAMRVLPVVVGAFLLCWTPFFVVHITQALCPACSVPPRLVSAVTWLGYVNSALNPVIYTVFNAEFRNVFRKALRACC
Experiment: DRUGMATRIX: Dopamine D4.2 radioligand binding (ligand: [3H] Spiperone)
Assay type: cell membranes, CHO-K1, Membrane
Conditions: cho-k1; Not Active = under 50% inhibition at 10 µM

| SMILES | IC50 |
| --- | --- |
| CC(=O)O[C@]1(C(C)=O)CC[C@H]2[C@@H]3C=C(Cl)C4=CC(=O)CC[C@]4(C)[C@H]3CC[C@@]21C [CHLORMADINONE ACETATE] | Not Active |
| O=C1OCCN1/N=C/c1ccc([N+](=O)[O-])o1 [FURAZOLIDONE] | Not Active |

Target: 5-hydroxytryptamine receptor 1B (Rattus norvegicus, UniProt P28564); note: in other assays of this panel Not Active means under 50% inhibition at 10 µM
Sequence (P28564 whole entry): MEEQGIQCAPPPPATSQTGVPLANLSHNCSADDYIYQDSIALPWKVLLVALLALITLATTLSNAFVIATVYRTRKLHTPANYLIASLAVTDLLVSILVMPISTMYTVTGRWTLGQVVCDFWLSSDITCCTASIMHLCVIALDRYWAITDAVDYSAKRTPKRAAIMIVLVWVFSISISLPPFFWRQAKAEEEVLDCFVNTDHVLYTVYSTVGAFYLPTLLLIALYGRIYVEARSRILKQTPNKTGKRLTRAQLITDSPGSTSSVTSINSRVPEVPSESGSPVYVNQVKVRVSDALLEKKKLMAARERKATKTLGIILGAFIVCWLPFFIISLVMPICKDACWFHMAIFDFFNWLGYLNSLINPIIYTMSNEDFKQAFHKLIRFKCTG
Experiment: not given
Assay type: cell membranes, Wistar, Cerebral cortex, Membrane
Conditions: not given

| SMILES | IC50 |
| --- | --- |
| CC(=O)O[C@]1(C(C)=O)CC[C@H]2[C@@H]3C=C(Cl)C4=CC(=O)CC[C@]4(C)[C@H]3CC[C@@]21C [CHLORMADINONE ACETATE] | Not Active |
| O=C1OCCN1/N=C/c1ccc([N+](=O)[O-])o1 [FURAZOLIDONE] | Not Active |

Target: T3, Cysteinyl leukotriene receptor 1 (Homo sapiens, UniProt Q9Y271); note: in other assays of this panel Not Active means under 50% inhibition at 10 µM
T3 sequence (Q9Y271 whole entry): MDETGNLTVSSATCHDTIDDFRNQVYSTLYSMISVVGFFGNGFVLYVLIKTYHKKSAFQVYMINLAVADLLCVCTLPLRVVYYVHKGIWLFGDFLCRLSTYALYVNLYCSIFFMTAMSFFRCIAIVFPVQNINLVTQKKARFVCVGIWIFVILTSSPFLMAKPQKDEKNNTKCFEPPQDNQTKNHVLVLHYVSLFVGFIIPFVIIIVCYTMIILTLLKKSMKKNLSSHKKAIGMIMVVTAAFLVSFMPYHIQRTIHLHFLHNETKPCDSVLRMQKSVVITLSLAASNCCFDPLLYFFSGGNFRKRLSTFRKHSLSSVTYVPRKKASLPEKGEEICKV
Experiment: not given
Assay type: cell membranes, CHO-K1, Membrane
Conditions: cho-k1

| SMILES | IC50 |
| --- | --- |
| CC(=O)O[C@]1(C(C)=O)CC[C@H]2[C@@H]3C=C(Cl)C4=CC(=O)CC[C@]4(C)[C@H]3CC[C@@]21C [CHLORMADINONE ACETATE] | Not Active |
| O=C1OCCN1/N=C/c1ccc([N+](=O)[O-])o1 [FURAZOLIDONE] | Not Active |

Target: Melanocortin receptor 5 (Homo sapiens, UniProt P33032); note: in other assays of this panel Not Active means under 50% inhibition at 10 µM
Sequence (P33032 whole entry): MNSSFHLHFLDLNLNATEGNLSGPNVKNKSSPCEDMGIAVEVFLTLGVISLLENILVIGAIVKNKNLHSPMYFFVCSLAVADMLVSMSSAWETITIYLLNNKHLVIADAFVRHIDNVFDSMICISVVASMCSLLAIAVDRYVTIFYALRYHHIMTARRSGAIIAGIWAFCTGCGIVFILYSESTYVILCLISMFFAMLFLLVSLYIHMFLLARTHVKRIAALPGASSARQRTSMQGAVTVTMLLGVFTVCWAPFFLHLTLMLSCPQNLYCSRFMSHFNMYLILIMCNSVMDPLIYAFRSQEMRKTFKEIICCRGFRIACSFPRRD
Experiment: not given
Assay type: cell membranes, HEK293, Membrane
Conditions: hek293

| SMILES | IC50 |
| --- | --- |
| CC(=O)O[C@]1(C(C)=O)CC[C@H]2[C@@H]3C=C(Cl)C4=CC(=O)CC[C@]4(C)[C@H]3CC[C@@]21C [CHLORMADINONE ACETATE] | Not Active |
| O=C1OCCN1/N=C/c1ccc([N+](=O)[O-])o1 [FURAZOLIDONE] | Not Active |

Target: T4, Caspase-1 (Homo sapiens, UniProt P29466)
T4 sequence (P29466 whole entry): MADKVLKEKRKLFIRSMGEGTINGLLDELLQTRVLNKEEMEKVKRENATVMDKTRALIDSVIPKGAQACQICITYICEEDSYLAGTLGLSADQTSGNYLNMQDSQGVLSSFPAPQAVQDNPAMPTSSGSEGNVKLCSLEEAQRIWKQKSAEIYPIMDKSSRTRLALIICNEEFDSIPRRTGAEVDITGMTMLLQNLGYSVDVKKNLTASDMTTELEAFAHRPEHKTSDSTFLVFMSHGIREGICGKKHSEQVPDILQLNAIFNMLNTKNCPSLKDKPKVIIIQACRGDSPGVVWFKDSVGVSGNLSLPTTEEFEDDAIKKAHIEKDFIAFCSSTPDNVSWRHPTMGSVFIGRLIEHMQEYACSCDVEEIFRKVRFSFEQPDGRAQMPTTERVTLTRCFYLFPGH
Experiment: not given
Set-up: species or system Escherichia coli
Conditions: not given

| SMILES | IC50 |
| --- | --- |
| CC(=O)O[C@]1(C(C)=O)CC[C@H]2[C@@H]3C=C(Cl)C4=CC(=O)CC[C@]4(C)[C@H]3CC[C@@]21C [CHLORMADINONE ACETATE] | Not Active |
| O=C1OCCN1/N=C/c1ccc([N+](=O)[O-])o1 [FURAZOLIDONE] | Not Active |

Target: Beta-1 adrenergic receptor (Homo sapiens, UniProt P08588)
Sequence (P08588 whole entry): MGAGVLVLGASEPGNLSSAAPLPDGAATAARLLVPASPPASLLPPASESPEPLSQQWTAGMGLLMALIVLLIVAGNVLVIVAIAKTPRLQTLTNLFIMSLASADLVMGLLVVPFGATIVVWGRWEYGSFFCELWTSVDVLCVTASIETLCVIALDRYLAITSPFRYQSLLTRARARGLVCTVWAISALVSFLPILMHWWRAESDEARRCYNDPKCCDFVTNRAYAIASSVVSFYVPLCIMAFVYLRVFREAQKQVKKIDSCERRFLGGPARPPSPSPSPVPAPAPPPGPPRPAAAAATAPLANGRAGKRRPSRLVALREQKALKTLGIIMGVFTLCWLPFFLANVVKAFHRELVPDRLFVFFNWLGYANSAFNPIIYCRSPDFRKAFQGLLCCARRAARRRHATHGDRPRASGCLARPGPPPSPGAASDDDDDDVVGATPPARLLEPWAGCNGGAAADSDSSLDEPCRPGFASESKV
Experiment: DRUGMATRIX: Adrenergic beta1 radioligand binding (ligand: [125I] Cyanopindolol)
Assay type: cell membranes, CHO-K1, Membrane
Conditions: cho-k1; Not Active = under 50% inhibition at 10 µM

| SMILES | IC50 |
| --- | --- |
| CC(=O)O[C@]1(C(C)=O)CC[C@H]2[C@@H]3C=C(Cl)C4=CC(=O)CC[C@]4(C)[C@H]3CC[C@@]21C [CHLORMADINONE ACETATE] | Not Active |
| O=C1OCCN1/N=C/c1ccc([N+](=O)[O-])o1 [FURAZOLIDONE] | Not Active |

Target: Mu-type opioid receptor (Homo sapiens, UniProt P35372)
Sequence (P35372 whole entry): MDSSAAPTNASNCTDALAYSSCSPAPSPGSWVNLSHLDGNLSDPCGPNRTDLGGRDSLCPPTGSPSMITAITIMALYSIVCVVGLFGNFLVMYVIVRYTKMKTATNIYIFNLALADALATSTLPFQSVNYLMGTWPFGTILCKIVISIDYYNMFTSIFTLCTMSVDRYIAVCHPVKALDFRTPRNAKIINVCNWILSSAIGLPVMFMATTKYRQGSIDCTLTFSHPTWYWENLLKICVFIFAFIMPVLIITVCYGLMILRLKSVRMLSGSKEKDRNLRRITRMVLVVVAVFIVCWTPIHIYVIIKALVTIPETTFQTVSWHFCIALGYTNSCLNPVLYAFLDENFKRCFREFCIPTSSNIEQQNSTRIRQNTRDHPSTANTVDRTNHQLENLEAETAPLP
Experiment: DRUGMATRIX: Opiate mu (OP3, MOP) radioligand binding (ligand: [3H] Diprenorphine)
Assay type: cell membranes, CHO-K1, Membrane
Conditions: cho-k1; Not Active = under 50% inhibition at 10 µM

| SMILES | IC50 |
| --- | --- |
| CC(=O)O[C@]1(C(C)=O)CC[C@H]2[C@@H]3C=C(Cl)C4=CC(=O)CC[C@]4(C)[C@H]3CC[C@@]21C [CHLORMADINONE ACETATE] | Not Active |
| O=C1OCCN1/N=C/c1ccc([N+](=O)[O-])o1 [FURAZOLIDONE] | Not Active |

Tested on: not listed separately
Experiment: DRUGMATRIX: Purinergic P2X radioligand binding (ligand: [3H] alpha, beta-Methylene-ATP)
Assay type: cell membranes, Oryctolagus cuniculus, New Zealand albino, Urinary bladder, Membrane
Conditions: Not Active = under 50% inhibition at 10 µM

| SMILES | IC50 | Ki |
| --- | --- | --- |
| CC(=O)O[C@]1(C(C)=O)CC[C@H]2[C@@H]3C=C(Cl)C4=CC(=O)CC[C@]4(C)[C@H]3CC[C@@]21C [CHLORMADINONE ACETATE] | Not Active | Not Active |
| O=C1OCCN1/N=C/c1ccc([N+](=O)[O-])o1 [FURAZOLIDONE] | Not Active | Not Active |

Tested on: not listed separately
Experiment: DRUGMATRIX: Leukotriene, BLT (LTB4) radioligand binding (ligand: [3H]LTB4)
Assay type: cell membranes, Membrane
Conditions: u-937; Not Active = under 50% inhibition at 10 µM

| SMILES | IC50 | Ki |
| --- | --- | --- |
| CC(=O)O[C@]1(C(C)=O)CC[C@H]2[C@@H]3C=C(Cl)C4=CC(=O)CC[C@]4(C)[C@H]3CC[C@@]21C [CHLORMADINONE ACETATE] | Not Active | Not Active |
| O=C1OCCN1/N=C/c1ccc([N+](=O)[O-])o1 [FURAZOLIDONE] | Not Active | Not Active |

Tested on: not listed separately
Experiment: DRUGMATRIX: beta-Lactamase enzyme inhibition (substrate: Nitrocefin)
Set-up: species or system Bacillus cereus
Conditions: Not Active = under 50% inhibition at 10 µM

| SMILES | IC50 | Ki |
| --- | --- | --- |
| CC(=O)O[C@]1(C(C)=O)CC[C@H]2[C@@H]3C=C(Cl)C4=CC(=O)CC[C@]4(C)[C@H]3CC[C@@]21C [CHLORMADINONE ACETATE] | Not Active | Not Active |
| O=C1OCCN1/N=C/c1ccc([N+](=O)[O-])o1 [FURAZOLIDONE] | Not Active | Not Active |

Tested on: not listed separately
Experiment: DRUGMATRIX: Sigma2 radioligand binding (ligand: [3H] Ifenprodil)
Assay type: cell membranes, Rattus norvegicus, Wistar, Brain, Membrane
Conditions: Not Active = under 50% inhibition at 10 µM

| SMILES | IC50 | Ki |
| --- | --- | --- |
| CC(=O)O[C@]1(C(C)=O)CC[C@H]2[C@@H]3C=C(Cl)C4=CC(=O)CC[C@]4(C)[C@H]3CC[C@@]21C [CHLORMADINONE ACETATE] | Not Active | Not Active |
| O=C1OCCN1/N=C/c1ccc([N+](=O)[O-])o1 [FURAZOLIDONE] | Not Active | Not Active |

Target: Epidermal growth factor receptor (Homo sapiens, UniProt P00533)
Sequence (P00533 whole entry): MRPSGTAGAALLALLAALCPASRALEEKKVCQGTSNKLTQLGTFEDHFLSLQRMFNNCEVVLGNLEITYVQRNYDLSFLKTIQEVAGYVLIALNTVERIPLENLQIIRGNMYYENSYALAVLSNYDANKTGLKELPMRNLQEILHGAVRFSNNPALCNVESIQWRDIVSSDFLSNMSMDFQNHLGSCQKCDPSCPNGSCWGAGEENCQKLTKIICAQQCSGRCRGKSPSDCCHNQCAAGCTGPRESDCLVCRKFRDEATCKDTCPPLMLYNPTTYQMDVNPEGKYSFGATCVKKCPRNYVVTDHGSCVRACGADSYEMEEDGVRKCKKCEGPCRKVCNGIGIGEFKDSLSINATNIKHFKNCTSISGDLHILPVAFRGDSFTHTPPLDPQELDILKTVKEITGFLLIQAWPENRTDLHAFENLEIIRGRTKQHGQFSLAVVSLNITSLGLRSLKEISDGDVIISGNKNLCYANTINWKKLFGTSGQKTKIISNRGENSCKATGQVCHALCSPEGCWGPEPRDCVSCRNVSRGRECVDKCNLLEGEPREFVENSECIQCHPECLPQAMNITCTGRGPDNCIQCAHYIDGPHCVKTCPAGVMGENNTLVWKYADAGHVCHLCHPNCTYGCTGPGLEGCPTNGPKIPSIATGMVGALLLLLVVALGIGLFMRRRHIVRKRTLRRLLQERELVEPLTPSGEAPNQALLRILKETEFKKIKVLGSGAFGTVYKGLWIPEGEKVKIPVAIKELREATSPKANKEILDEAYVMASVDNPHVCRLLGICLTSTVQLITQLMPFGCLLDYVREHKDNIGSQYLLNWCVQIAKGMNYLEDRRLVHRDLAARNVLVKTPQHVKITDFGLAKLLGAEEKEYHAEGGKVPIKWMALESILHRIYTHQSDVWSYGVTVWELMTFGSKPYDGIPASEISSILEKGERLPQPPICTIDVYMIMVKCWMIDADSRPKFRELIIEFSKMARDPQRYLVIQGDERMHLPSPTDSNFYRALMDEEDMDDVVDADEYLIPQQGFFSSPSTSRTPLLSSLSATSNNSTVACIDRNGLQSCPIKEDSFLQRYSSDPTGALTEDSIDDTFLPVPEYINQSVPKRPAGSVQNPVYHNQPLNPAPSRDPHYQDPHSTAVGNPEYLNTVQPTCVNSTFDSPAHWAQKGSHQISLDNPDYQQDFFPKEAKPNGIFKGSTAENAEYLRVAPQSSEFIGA
Experiment: DRUGMATRIX: Protein Tyrosine Kinase, EGF Receptor enzyme inhibition (substrate: Poly(Glu:Tyr))
Assay type: cell-based, Insect cells
Conditions: insect cells; Not Active = under 50% inhibition at 10 µM

| SMILES | IC50 |
| --- | --- |
| CC(=O)O[C@]1(C(C)=O)CC[C@H]2[C@@H]3C=C(Cl)C4=CC(=O)CC[C@]4(C)[C@H]3CC[C@@]21C [CHLORMADINONE ACETATE] | Not Active |
| O=C1OCCN1/N=C/c1ccc([N+](=O)[O-])o1 [FURAZOLIDONE] | Not Active |

Target: T5, 5-hydroxytryptamine receptor 2C (Homo sapiens, UniProt P28335)
T5 sequence (P28335 whole entry): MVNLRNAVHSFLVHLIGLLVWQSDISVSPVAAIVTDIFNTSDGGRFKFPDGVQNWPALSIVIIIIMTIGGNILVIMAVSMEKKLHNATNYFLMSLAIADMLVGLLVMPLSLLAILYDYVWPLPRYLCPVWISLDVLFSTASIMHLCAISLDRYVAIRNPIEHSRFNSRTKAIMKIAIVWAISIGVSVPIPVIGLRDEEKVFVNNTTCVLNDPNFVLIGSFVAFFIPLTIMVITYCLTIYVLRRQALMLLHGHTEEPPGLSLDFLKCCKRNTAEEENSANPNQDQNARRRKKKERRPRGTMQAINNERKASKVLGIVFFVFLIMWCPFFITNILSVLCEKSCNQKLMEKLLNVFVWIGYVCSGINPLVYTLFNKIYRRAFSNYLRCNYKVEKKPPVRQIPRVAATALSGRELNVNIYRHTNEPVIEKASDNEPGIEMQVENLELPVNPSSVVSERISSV
Experiment: DRUGMATRIX: Serotonin (5-Hydroxytryptamine) 5-HT2C radioligand binding (ligand: [3H] Mesulergine)
Assay type: cell membranes, CHO-K1, Membrane
Conditions: cho-k1; Not Active = under 50% inhibition at 10 µM

| SMILES | IC50 |
| --- | --- |
| CC(=O)O[C@]1(C(C)=O)CC[C@H]2[C@@H]3C=C(Cl)C4=CC(=O)CC[C@]4(C)[C@H]3CC[C@@]21C [CHLORMADINONE ACETATE] | Not Active |
| O=C1OCCN1/N=C/c1ccc([N+](=O)[O-])o1 [FURAZOLIDONE] | Not Active |

Target: Melanocortin receptor 4 (Homo sapiens, UniProt P32245); note: in other assays of this panel Not Active means under 50% inhibition at 10 µM
Sequence (P32245 whole entry): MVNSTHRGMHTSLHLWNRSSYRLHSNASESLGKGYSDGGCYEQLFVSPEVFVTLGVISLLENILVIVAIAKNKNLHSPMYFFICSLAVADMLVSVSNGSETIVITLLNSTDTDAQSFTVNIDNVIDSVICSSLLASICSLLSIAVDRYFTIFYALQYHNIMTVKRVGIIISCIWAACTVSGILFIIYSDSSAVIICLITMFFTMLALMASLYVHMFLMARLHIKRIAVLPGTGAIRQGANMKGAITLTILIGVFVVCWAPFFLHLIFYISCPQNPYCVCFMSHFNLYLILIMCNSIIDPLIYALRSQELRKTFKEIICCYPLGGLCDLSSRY
Experiment: not given
Assay type: cell membranes, Membrane
Conditions: hek293

| SMILES | IC50 |
| --- | --- |
| CC(=O)O[C@]1(C(C)=O)CC[C@H]2[C@@H]3C=C(Cl)C4=CC(=O)CC[C@]4(C)[C@H]3CC[C@@]21C [CHLORMADINONE ACETATE] | Not Active |
| O=C1OCCN1/N=C/c1ccc([N+](=O)[O-])o1 [FURAZOLIDONE] | Not Active |

Target: Tyrosine-protein kinase Fyn (Homo sapiens, UniProt P06241)
Sequence (P06241 whole entry): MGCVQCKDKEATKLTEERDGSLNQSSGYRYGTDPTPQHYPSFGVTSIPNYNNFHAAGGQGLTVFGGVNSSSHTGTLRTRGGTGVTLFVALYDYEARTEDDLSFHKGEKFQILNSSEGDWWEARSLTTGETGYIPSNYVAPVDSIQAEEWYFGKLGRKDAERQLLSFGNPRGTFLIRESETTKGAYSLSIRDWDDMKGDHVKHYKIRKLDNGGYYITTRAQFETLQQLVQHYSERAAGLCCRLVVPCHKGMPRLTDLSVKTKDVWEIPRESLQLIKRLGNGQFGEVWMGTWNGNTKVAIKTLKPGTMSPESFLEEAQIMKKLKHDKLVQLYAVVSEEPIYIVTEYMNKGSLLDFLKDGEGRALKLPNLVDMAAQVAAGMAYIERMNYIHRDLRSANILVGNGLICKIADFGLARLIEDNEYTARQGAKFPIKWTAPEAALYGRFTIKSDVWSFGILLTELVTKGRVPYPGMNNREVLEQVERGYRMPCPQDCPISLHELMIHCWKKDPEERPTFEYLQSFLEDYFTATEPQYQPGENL
Experiment: biochemical
Assay type: cell-based, Insect cells
Conditions: insect cells

| SMILES | IC50 |
| --- | --- |
| CC(=O)O[C@]1(C(C)=O)CC[C@H]2[C@@H]3C=C(Cl)C4=CC(=O)CC[C@]4(C)[C@H]3CC[C@@]21C [CHLORMADINONE ACETATE] | Not Active |
| O=C1OCCN1/N=C/c1ccc([N+](=O)[O-])o1 [FURAZOLIDONE] | Not Active |

Source: ChEMBL document CHEMBL1909046, “DrugMatrix in vitro pharmacology data”
